Patent US12667100B2, “Composition comprising benzylamine acaricide and use thereof” (SHANDONG KANGQIAO BIO-TECHNOLOGY CO., LTD, priority 2021, dated 2026)
“And” between values parts separate entries of the source, which are not always exact repeats. Identical values can stand only once. Like-named read-outs stand apart in the source and are kept apart here.

Tested on: Tetranychus cinnabarinus Boi, adult mite
Assay: whole plant or invertebrate
Type: in vivo
Procedure: Test subject: Tetranychus cinnabarinus Boi, adult mite, indoor rearing sensitive strain.
Test condition: 25° C. constant temperature incubator, 60% relative humidity, light L:D=14:10
Test solution formulation: according to the test needs, accurately weigh the test sample more than 50 mg by using an electronic analytical balance, mixed with acetone to the required concentration, according to calculation, the sample of acetone solution added to a volumetric flask, diluted by aqueous solution with 0.1 wt % Tween 80 to obtain the required concentration of the solution.
Test method: One true leaf was removed after cutting the seedlings of beans, and one true leaf was added to the hydroponic glass jar after leaving the leaf to access about 50-150 adult Tetranychus cinnabarinus Boi of the same size, and the mite base was counted the next day. The Airbrush method was used to treat the test material with medicinal spray, 1.5 mL of medicinal spray was sprayed for each treatment, and a blank control was set for three treatments.
After spraying and drying naturally, the treated test material was placed in a constant temperature observation room. 72 hours later, the number of live mites was investigated and the mortality rate was calculated. The Bliss method was used for evaluation, and the theoretical mortality rate could be calculated by the following formula: P=Pm+Pn(1−Pm)
Pm is the mortality rate (%) of the target at a concentration of m for the first active component (active component a); Pn is the mortality rate (%) of the target at a concentration of n for the second active component (active component b).

[1] = Tetranychus cinnabarinus, 72 h, single agent 0.01 mg/L, adult mites, 72 h after spraying, read-out: 72 h mortality rate
[2] = Tetranychus cinnabarinus, 72 h, single agent 0.04 mg/L, adult mites, 72 h after spraying, read-out: 72 h mortality rate
[3] = Tetranychus cinnabarinus, 72 h, single agent 0.2 mg/L, adult mites, 72 h after spraying, read-out: 72 h mortality rate
[4] = Tetranychus cinnabarinus, 72 h, single agent 0.4 mg/L, adult mites, 72 h after spraying, read-out: 72 h mortality rate
[5] = Tetranychus cinnabarinus, 72 h, single agent 0.8 mg/L, adult mites, 72 h after spraying, read-out: 72 h mortality rate
[6] = single agent 0.2 mg/L, adult mites, 72 h after spraying
[7] = single agent 0.4 mg/L, adult mites, 72 h after spraying
[8] = single agent 0.8 mg/L, adult mites, 72 h after spraying
[9] = Tetranychus cinnabarinus, 72 h, read-out: 72 h mortality rate
[10] = single agent 0.01 mg/L, adult mites, 72 h after spraying
[11] = single agent 0.04 mg/L, adult mites, 72 h after spraying
[12] = single agent 1 mg/L, adult mites, 72 h after spraying
[13] = single agent 5 mg/L, adult mites, 72 h after spraying

Compound: COC(=O)c1ccccc1CNc1cc(SCC(F)(F)F)c(C)cc1F [Compound A1]
- mortality at 0.01 µg/mL [1]: 0%
- mortality at 0.04 µg/mL [2]: 0%
- mortality at 0.2 µg/mL [3]: 27.9%
- mortality at 0.4 µg/mL [4]: 40.1%
- mortality at 0.8 µg/mL [5]: 74.6%
- 72 h mortality rate [6]: 22.2% and 28.1% and 26.8% and 19.8%
- 72 h mortality rate [7]: 40.4% and 43.3% and 41.7% and 42.3%
- 72 h mortality rate [8]: 74.3% and 72.6% and 72.7% and 74.1%

Compound: COC(=O)c1ccccc1CNc1cc(SCC(F)(F)F)c(Cl)cc1F [Compound A9]
- mortality at 0.01 µg/mL [1]: 0%
- mortality at 0.04 µg/mL [2]: 0%
- mortality at 0.2 µg/mL [3]: 19.8%
- mortality at 0.4 µg/mL [4]: 42.2%
- mortality at 0.8 µg/mL [5]: 62.3%
- 72 h mortality rate [6]: 18.5% and 27.5% and 22.1% and 22.4%
- 72 h mortality rate [7]: 41.9% and 36.0% and 40.8% and 34.5%
- 72 h mortality rate [8]: 64.1% and 67.1% and 64.6% and 65.8%

Compound: CC[C@H](C)[C@H]1O[C@]2(C=C[C@@H]1C)C[C@@H]1C[C@@H](C/C=C(\C)[C@@H](O[C@H]3C[C@H](OC)[C@@H](O[C@H]4C[C@H](OC)[C@@H](O)[C@H](C)O4)[C@H](C)O3)[C@@H](C)/C=C/C=C3\CO[C@@H]4[C@H](O)C(C)=C[C@@H](C(=O)O1)[C@]34O)O2 [avermectin]
- mortality at 0.0005 µg/mL [9]: 0%
- mortality at 0.0025 µg/mL [9]: 14.8%
- mortality at 0.01 µg/mL [9]: 37.3%
- mortality at 0.02 µg/mL [9]: 70%

Compound: Clc1ccccc1-c1nnc(-c2ccccc2Cl)nn1 [clofentezine]
- mortality at 0.04 µg/mL [9]: 0%
- mortality at 0.2 µg/mL [9]: 0%
- mortality at 1 µg/mL [9]: 9.1%
- mortality at 8 µg/mL [9]: 18.2%
- mortality at 40 µg/mL [9]: 41.3%

Compound: CCn1nc(C)cc1/C(OC(=O)C(C)(C)C)=C(/C#N)c1ccc(C(C)(C)C)cc1 [cyetpyrafen]
- 72 h mortality rate [10]: 0%
- 72 h mortality rate (single agent 0.05 mg/L, adult mites, 72 h after spraying): 2.8%
- 72 h mortality rate (single agent 0.1 mg/L, adult mites, 72 h after spraying): 17.0%
- 72 h mortality rate [6]: 37.9%
- 72 h mortality rate (single agent 0.5 mg/L, adult mites, 72 h after spraying): 75.5%

Compound: CCOc1cc(C(C)(C)C)ccc1C1COC(c2c(F)cccc2F)=N1 (stereo not drawn) [etoxazole]
- mortality at 0.01 µg/mL [9]: 0%
- mortality at 0.04 µg/mL [9]: 0%
- mortality at 0.2 µg/mL [9]: 9.3%
- mortality at 0.4 µg/mL [9]: 21.4%
- mortality at 1 µg/mL [9]: 26.6%
- mortality at 5 µg/mL [9]: 43.6%

Compound: C[C@@H]1[C@@H](c2ccc(Cl)cc2)SC(=O)N1C(=O)NC1CCCCC1 [hexythiazox]
- mortality at 0.04 µg/mL [9]: 0%
- mortality at 0.2 µg/mL [9]: 12.8%
- mortality at 1 µg/mL [9]: 21.3%
- mortality at 8 µg/mL [9]: 36.3%
- mortality at 40 µg/mL [9]: 69.5%

Compound: C#CCOS(=O)OC1CCCCC1Oc1ccc(C(C)(C)C)cc1 (stereo not drawn) [propargite]
- mortality at 0.1 µg/mL [9]: 0%
- mortality at 0.4 µg/mL [9]: 0%
- mortality at 4 µg/mL [9]: 3.9%
- mortality at 25 µg/mL [9]: 34.1%

Compound: CCC(C)(C)C(=O)OC1=C(c2ccc(Cl)cc2Cl)C(=O)OC12CCCCC2 [spirodiclofen]
- 72 h mortality rate [10]: 0%
- 72 h mortality rate [11]: 0%
- 72 h mortality rate [6]: 0%
- 72 h mortality rate [7]: 9.4%
- 72 h mortality rate [12]: 24.2%
- 72 h mortality rate [13]: 56.9%

Compound: Cc1cc(C)c(C2=C(OC(=O)CC(C)(C)C)C3(CCCC3)OC2=O)c(C)c1 [spiromesifen]
- 72 h mortality rate [10]: 0%
- 72 h mortality rate [11]: 0%
- 72 h mortality rate [6]: 0%
- 72 h mortality rate [7]: 14.1%
- 72 h mortality rate [12]: 30.4%
- 72 h mortality rate [13]: 64.9%
